Reference: patent US6967205B1, “Compounds with antibacterial and antiparasitic properties” (New Pharma Research Sweden AB, priority 1999, dated 2005)
Converted amounts (≈) assume the structure as drawn.

Assays:
[1] = system: gram-positive bacteria; experiment: Antibacterial activity against gram-positive bacteria, overall comparison with enrofloxacin; format: cell-based; details: seven gram-positive strains of Table 6
Experimental: The antibacterial activity of the present compounds was investigated by in vitro evaluation of their M.I.C. (Minimum Inhibitory Concentration) values. The evaluation was conducted in complete accordance with the “Broth dilution method”, as outlined by the U.S. National Committee for Clinical Laboratory Standards “NCCLS 1988”.
Solutions of the present compounds were prepared by dissolving 0.01 g of a test compound in either 10% KOH (aq) or a 10% KOH/DMF mixture, after which sterile, distilled H2O was added up to a total volume of 10 ml, thereby yielding a test compound concentration of 1 000 μg/ml.
In this evaluation, the antibacterial activity of the present compounds and enrofloxacin as reference compound was tested against seven strains of gram-positive bacteria, namely Bacillus subtilus (ATCC 6633), Bacillus cereus, Streptococcus faecium, Micrococcus Luteus (ATCC 9341), Staph. aureus (ATCC 29737), Staph. epidermidis (ATCC 12228) and Staphylococcus (ATCC 6538).

[2] = system: Bacillus cereus; experiment: M.I.C. by broth dilution method (NCCLS 1988), gram-positive bacteria; format: cell-based; details: in vitro broth dilution
Method in brief: (§1)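 MIC values were obtained by broth dilution following NCCLS 1988 against gram-positive strains including Bacillus subtilus ATCC 6633, Streptococcus faecium and Staphylococcus ATCC 6538. Enrofloxacin served as reference. Compound stocks were 1 000 μg/ml in aqueous KOH or KOH/DMF.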

[3] = system: Micrococcus Luteus (ATCC 9341); experiment: as above; format: cell-based; details: ATCC9341, in vitro broth dilution, read-out: M.I.C. values Microc. Luteus
Method in brief: as §1

[4] = system: Streptococcus faecium; experiment: as above; format: cell-based; details: Enterococcus faecium, in vitro broth dilution, read-out: M.I.C. values Streptoc. faecium
Method in brief: as §1

[5] = system: Bacillus subtilus (ATCC 6633); experiment: as above; format: cell-based; details: ATCC6633, in vitro broth dilution
Method in brief: as §1

[6] = system: Staph. aureus (ATCC 29737); experiment: as above; format: cell-based; details: Staphylococcus aureus, ATCC29737, in vitro broth dilution
Method in brief: as §1

[7] = system: Staph. epidermidis (ATCC 12228); experiment: as above; format: cell-based; details: Staphylococcus epidermidis, ATCC12228, in vitro broth dilution
Method in brief: as §1

[8] = system: Staphylococcus (ATCC 6538); experiment: as above; format: cell-based; details: ATCC6538, in vitro broth dilution, read-out: M.I.C. values Staph. (ATCC 6538)
Method in brief: as §1

[9] = system: Eimeria acervulina, E. maxima, E. necatrix, E. tenella and E. brunetti; experiment: Prophylactic anticoccidial activity in chickens of Habbared X breed (5 Eimeria strains); format: in vivo
Experimental: The anticoccidial activity of the present compounds as prophylactic agents was evaluated in vivo on […] one day old (1 day after hatch) chickens of Habbared X breed. The chickens were divided into four groups of 20 birds each, and each group was located in a separate pen (1 m×1 m). The chickens were then fed with unmedicated food up to day 7 after hatch. Fresh water was supplied ad libitum .
On day 8 after hatch, the four groups were fed as follows (1 ppm=1 mg drug/kg feed): • Group #1: feed containing JA 39 (100 ppm); • Group #2: feed containing JA 42 (100 ppm); • Group #3: feed containing Coxistac (60 ppm), a known anticoccidial agent (see U.S. Pat. No. 3,857,948);
Group #4: feed containing no drug (control group).
The chickens were fed as above on day 8 and 9 after hatch. On day 10 after hatch, each chicken was infected orally by 6 000-7 000 oocysts containing a mixture of 5 mature sporulated strains, namely Eimeria acervulina, E. maxima, E. necatrix, E. tenella and E. brunetti. The groups #1-3 received drug as above from day 10 to 21 after hatch.
From day 14 to 21 after hatch, fresh fecal droplets were collected and examined daily. The average number of oocysts/g faeces was then calculated in accordance with the so-called Mc-Master technique (Soulsby, E. J., Helminths, Arthropods & Protozoa of domesticated animals, p. 789, 6th Ed., Williams & Wilkins Co. Baltimore (USA), Tindall & Cassell Ltd., London, 1968). The final weight of and mean total amount of feed consumed by each bird were also examined, and the results are summarized in Table 8 hereinbelow.

[10] = system: E. mitis, E. hagani, E. praecox, E. acervulina, E. maxima, E. necatrix, E. tenella and E. brunetti; experiment: Prophylactic anticoccidial effect in chickens of Arbor Aker breed (8 Eimeria strains); format: in vivo; details: 100 ppm in feed from day 3, infected day 7
Experimental: JA 12, JA 39 and JA 42 was also evaluated in chickens of Arbor Aker breed. These trials were conducted by using basically the same test protocol as that used for the chickens of Habbared X breed, albeit with the following modifications:
• i) On day 3 after hatch, the tested groups of chickens received feed containing 100 ppm of JA 12, JA 39, JA 42 or Coxistac (60 ppm); • ii) On day 7 after hatch, the chickens were infected orally by oocysts containing a mixture of 8 mature sporulated strains, namely E. mitis, E. hagani, E. praecox, E. acervulina, E. maxima, E. necatrix, E. tenella and E. brunetti.

| SMILES | antibacterial activity against gram-positive bacteria compared to that of enrofloxacin [1] | MIC [2] | MIC [3] | MIC [4] | MIC [5] | MIC [6] | MIC [7] | MIC [8] | anticoccidial effect (in words) ([9]; chickens of Habbared X breed, 100 ppm in feed) | Average number of Eimeria spp. oocysts/g faeces, day after hatch 14 ([9]; day 14 after hatch, drug in feed (JA 39, JA 42 100 ppm; Coxistac 60 ppm), infected day 10) | Average number of Eimeria spp. oocysts/g faeces, day after hatch 15 ([9]; day 15 after hatch, drug in feed (JA 39, JA 42 100 ppm; Coxistac 60 ppm), infected day 10) | Average number of Eimeria spp. oocysts/g faeces, day after hatch 16 ([9]; day 16 after hatch, drug in feed (JA 39, JA 42 100 ppm; Coxistac 60 ppm), infected day 10) | Average number of Eimeria spp. oocysts/g faeces, day after hatch 17 ([9]; day 17 after hatch, drug in feed (JA 39, JA 42 100 ppm; Coxistac 60 ppm), infected day 10) | Average number of Eimeria spp. oocysts/g faeces, day after hatch 18 ([9]; day 18 after hatch, drug in feed (JA 39, JA 42 100 ppm; Coxistac 60 ppm), infected day 10) | Average number of Eimeria spp. oocysts/g faeces, day after hatch 19 ([9]; day 19 after hatch, drug in feed (JA 39, JA 42 100 ppm; Coxistac 60 ppm), infected day 10) | Average number of Eimeria spp. oocysts/g faeces, day after hatch 21 ([9]; day 21 after hatch, drug in feed (JA 39, JA 42 100 ppm; Coxistac 60 ppm), infected day 10) | Mean body weight ([9]; final weight, infected chickens, drug in feed (JA 39, JA 42 100 ppm; Coxistac 60 ppm)) | Mean amount of feed consumed ([9]; mean total feed per bird, infected chickens, drug in feed (JA 39, JA 42 100 ppm; Coxistac 60 ppm)) | Average number of Eimeria spp. oocysts/g faeces, Total ([9]; total of days 14-21 after hatch, drug in feed (JA 39, JA 42 100 ppm; Coxistac 60 ppm)) | prophylactic anticoccidial effect (in words) [10] |
| --- | --- | --- | --- | --- | --- | --- | --- | --- | --- | --- | --- | --- | --- | --- | --- | --- | --- | --- | --- | --- |
| COc1ccc(S(=O)(=O)N2CCN(c3cc4c(cc3F)c(=O)c(C(=O)O)cn4C3CC3)CC2)cc1 [JA 4, 1-cyclopropyl-6-fluoro-7-{4-[(4-methoxyphenyl)sulfonyl]-1-piperazinyl}-4-oxo-1,4-dihydro-3-quinolinecarboxylic acid] | clearly superior | 0.01 µg/mL (≈ 0.0199 µM) | 0.25 µg/mL (≈ 0.498 µM) | 0.06 µg/mL (≈ 0.12 µM) | 0.01 µg/mL (≈ 0.0199 µM) | 0.06 µg/mL (≈ 0.12 µM) | 0.03 µg/mL (≈ 0.0598 µM) | 0.01 µg/mL (≈ 0.0199 µM) | – | – | – | – | – | – | – | – | – | – | – | – |
| O=C(O)c1cn(C2CC2)c2cc(N3CCN(c4cncc(Cl)n4)CC3)c(F)cc2c1=O [JA 39, 7-[4-(6-chloro-2-pyrazinyl)-1-piperazinyl]-1-cyclopropyl-6-fluoro-4-oxo-1,4-dihydro-3-quinolinecarboxylic acid] | clearly superior | 0.01 µg/mL (≈ 0.0225 µM) | 1 µg/mL (≈ 2.25 µM) | 0.25 µg/mL (≈ 0.563 µM) | 0.06 µg/mL (≈ 0.135 µM) | 0.12 µg/mL (≈ 0.27 µM) | 0.01 µg/mL (≈ 0.0225 µM) | 0.03 µg/mL (≈ 0.0676 µM) | excellent anticoccidial effect | 0.0 oocysts/g faeces | 4000 oocysts/g faeces | 5000 oocysts/g faeces | 3000 oocysts/g faeces | 0.0 oocysts/g faeces | 0.0 oocysts/g faeces | 0.0 oocysts/g faeces | 68.2 g | 81 g | 12000 oocysts/g faeces | essentially the same as those reported for the trials with the chickens of Habbared X breed |
